System: IFN-a/Jak1Tyk2
Experiment: Co-stimulation assay in lysed whole blood: IFNa (JAK1/TYK2) stimulated STAT1 phosphorylation
Type: cell-based
Details: lysed human whole blood, IFNa 100 ng/mL (co-stimulated with GM-CSF 10 ng/mL), pSTAT1 by flow cytometry
Description: Example 4: Co-Stimulation Assay in Lysed Whole Blood; JAK2: GM-CSF Stimulated STATS Phosphorylation and JAK1/TYK2 Stimulated STAT1 Phosphorylation Assay
Human Blood Lysis Using Abcam's RBC Lysis Buffer
Dilute RBC lysis buffer to 1× in distilled water. Add 2 mL blood to 38 mL of 1×RBC-lysis buffer. Incubate for 15 mins at RT, in dark. Spin at 300 g, 5 mins, to collect the pellet. Re-lyse if necessary. Re-suspend pellet in 5 mL of cRPMI.
Compound and Cytokine Treatment
Aliquot 80 μL of lysed human blood in to wells of 96 deep-well plate. Add 10 μl of (10× conc.) of different concentrations of compounds to all wells except controls (unstained and unstimulated) and mix it with the help of 100 uL multichannel. Add 10 uL of RPMI media in controls. For dilution of compounds and dilution range please refer Appendix. Incubate on water bath or CO2 incubator for 1 hour at 37° C. Add 10 μL of (10× conc.) of cytokine mix (GM-CSF and IFNa) (final conc. 10 ng/mL of GM-CSF and 100 ng/mL of IFNa) to each well except unstimulated and unstained controls and incubate further for 20 minutes on water bath at 37° C.
Add 900 μL of prewarmed 1× Fix/Lyse solution (Appendix) and mix it properly using 1000 μl multichannel, incubate further on water bath at 37° C. for 10 minutes (which includes time of addition). Centrifuge at 800× g for 5 minutes at 40° C.; remove 900 uL of supernatant and add 900 μL of 1×PBS. Centrifuge at 800× g for 5 minutes at 40° C., remove 900 μL of supernatant. Wash one more time with 900 μL of PBS (optional) and resuspend pellets in 100 uL of PBS.
Disrupt the pellet by gentle tapping and resuspend in 1000 μL of BD Phosflow Perm Buffer III and incubate plate on ice for 30 minutes. Centrifuge plate at 800× g for 5 minutes at 40° C. Wash two more times with 1000 μL of BD Pharmingen Stain Buffer.
Disrupt the pellet by gentle tapping. Resuspend pellets in 100 uL of Stain Buffer and add 5 μL of pSTAT5_AF488 Ab and 5 uL of pSTAT1_PE in all wells except unstained control and mix properly using 200 μl multichannel, incubate overnight at […]. Add 900 μL of wash buffer and centrifuge at 1800 rpm for 3 minutes at […]. Wash one more time with 1000 μL of BD Pharmingen Stain Buffer. Finally resuspend the pellet in 300 uL of BD Pharmingen Stain Buffer. Transfer the cells to 96-well v-bottom plate and acquire the cells in Beckman Coulter CytExpert. Acquiring cells in Flow Cytometer: Keep the threshold value to 250 and cell concentration should not exceed 100-500 cells/μL. Acquire at least 5,000-10,000 cells.
RPMI 1640 Complete Medium: RPMI 1640 media+10% FBS.
Cytokine dilution: 1) GM-CSF Stock at 100 ug/mL. Prepare an intermediate dilution of 1 ug/mL by adding 2 uL of stock into 198 uL of cRPMI. Further dilute to 100 ng/mL by adding 100 uL of the intermediate stock to 900 uL of cRPMI. 2) IFNa Stock at 200 ug/mL. Dilute IFNa stock 1:200 by adding 5 uL of stock into the 1000 uL of 100 ng/mL GM-CSF working stock as above to give a combined working stock of 1000 ng/mL of IFNa and 100 ng/mL GM-CSF (lox). Keep it on ice until used.
Lyse/Fix buffer preparation: Dilute 5× Lyse/Fix buffer to 1× using MQ water and keep at 37° C. until used.
BD Phosflow perm buffer III: Keep on ice/fridge.

Row | IC50 [µM] | Compound
1 | 1 to 10 | CNc1cc2nc3c(cnn13)C(=O)NCCn1cc(cn1)N2 [Compound 47, (1^3E,1^4E,3^4E)-1^7-(methylamino)-31H-2,6-diaza-1(5,3)-pyrazolo[1,5-a]pyrimidina-3(4,1)-pyrazolacycloheptaphan-7-one]
2 | 1 to 10 | CNc1cc2nc3c(cnn13)C(=O)NCCCc1csc(n1)N2 [Compound 43, (1^2Z,3^3E,3^4E)-3^7-(methylamino)-2,5-diaza-1(2,4)-thiazola-3(5,3)-pyrazolo[1,5-a]pyrimidinacyclooctaphan-4-one]
3 | 1 to 10 | CNc1cc2nc3c(cnn13)C(=O)NCCC(=O)c1cccc(c1)N2 [Compound 44, (1^3E,1^4E)-1^7-(methylamino)-2,7-diaza-1(5,3)-pyrazolo[1,5-a]pyrimidina-3(1,3)-benzenacyclooctaphane-4,8-dione]
4 | 0.1 to 1 | [2H]C([2H])([2H])Nc1cc2nc3c(cnn13)C(=O)NCCCc1cccc(c1)N2 [Compound 24, (1^3E,1^4E)-1^7-((methyl-d3)amino)-2,7-diaza-1(5,3)-pyrazolo[1,5-a]pyrimidina-3(1,3)-benzenacyclooctaphan-8-one]
5 | 0.1 to 1 | CNc1cc2nc3c(cnn13)C(=O)NCCOc1cc(Cl)cc(c1)N2 [Compound 33, (1^3E,1^4E)-3^5-chloro-1^7-(methylamino)-4-oxa-2,7-diaza-1(5,3)-pyrazolo[1,5-a]pyrimidina-3(1,3)-benzenacyclooctaphan-8-one]
6 | ≤ 0.5 | CNc1cc2nc3c(cnn13)C(=O)NCCOc1cccc(c1)N2 [Compound 7, (1^3E,1^4E)-1^7-(methylamino)-4-oxa-2,7-diaza-1(5,3)-pyrazolo[1,5-a]pyrimidina-3(1,3)-benzenacyclooctaphan-8-one]
7 | ≤ 0.5 | CNc1cc2nc3c(cnn13)C(=O)NCCc1cccc(c1)N2 [Compound 16, (1^3E,1^4E)-1^7-(methylamino)-2,6-diaza-1(5,3)-pyrazolo[1,5-a]pyrimidina-3(1,3)-benzenacycloheptaphan-7-one]
8 | 0.1 to 1 | CNc1cc2nc3c(cnn13)C(=O)NCCOc1ccccc1N2 [Compound 20, (1^3E,1^4E)-1^7-(methylamino)-4-oxa-2,7-diaza-1(5,3)-pyrazolo[1,5-a]pyrimidina-3(1,2)-benzenacyclooctaphan-8-one]
9 | 0.1 to 1 | CNc1cc2nn3c(cnc13)C(=O)NCCOc1cccc(c1)N2 [Compound 12, (E)-1^8-(methylamino)-4-oxa-2,7-diaza-1(6,3)-imidazo[1,2-b]pyridazina-3(1,3)-benzenacyclooctaphan-8-one]
10 | 0.1 to 1 | CNc1cc2nc3c(cnn13)C(=O)NCCOc1ccc(F)c(c1)N2 [Compound 22, (1^3E,1^4E)-3^6-fluoro-1^7-(methylamino)-4-oxa-2,7-diaza-1(5,3)-pyrazolo[1,5-a]pyrimidina-3(1,3)-benzenacyclooctaphan-8-one]
11 | 1 to 10 | CNc1cc2nc3c(cnn13)C(=O)NCCOc1cc(c(F)cc1C)N2 [Compound 39, (1^3E,1^4E)-3^6-fluoro-34-methyl-1^7-(methylamino)-4-oxa-2,7-diaza-1(5,3)-pyrazolo[1,5-a]pyrimidina-3(1,3)-benzenacyclooctaphan-8-one]
12 | 0.1 to 1 | CNc1cc2nc3c(cnn13)C(=O)NCCOc1cc(ccc1Cl)N2 [Compound 23, (1^3E,1^4E)-3^4-chloro-1^7-(methylamino)-4-oxa-2,7-diaza-1(5,3)-pyrazolo[1,5-a]pyrimidina-3(1,3)-benzenacyclooctaphan-8-one]
13 | 1 to 10 | CNc1cc2nc3c(cnn13)C(=O)NCCc1cccc(n1)N2 [Compound 42, (1^3E,1^4E)-1^7-(methylamino)-2,6-diaza-1(5,3)-pyrazolo[1,5-a]pyrimidina-3(2,6)-pyridinacycloheptaphan-7-one]
14 | 0.1 to 1 | CNc1cc2nc3c(cnn13)C(=O)NCCCCOc1cccc(c1)N2 [Compound 35, (1^3E,1^4E)-1^7-(methylamino)-4-oxa-2,9-diaza-1(5,3)-pyrazolo[1,5-a]pyrimidina-3(1,3)-benzenacyclodecaphan-10-one]
15 | 1 to 10 | CNc1cc2nc3c(cnn13)C(=O)NCC(C)Oc1cccc(c1)N2 (centres unmarked) [Compound 37, (1^3E,1^4E)-5-methyl-1^7-(methylamino)-4-oxa-2,7-diaza-1(5,3)-pyrazolo[1,5-a]pyrimidina-3(1,3)-benzenacyclooctaphan-8-one]
16 | 0.1 to 1 | CNc1cc2nc3c(cnn13)C(=O)NCCOc1cc(F)cc(c1)N2 [Compound 19, (1^3E,1^4E)-3^5-fluoro-1^7-(methylamino)-4-oxa-2,7-diaza-1(5,3)-pyrazolo[1,5-a]pyrimidina-3(1,3)-benzenacyclooctaphan-8-one]
17 | 0.1 to 1 | CNc1cc2nc3c(cnn13)C(=O)NCCOc1ccc(F)cc1N2 [Compound 32, (1^3E,1^4E)-3^5-fluoro-1^7-(methylamino)-4-oxa-2,7-diaza-1(5,3)-pyrazolo[1,5-a]pyrimidina-3(1,2)-benzenacyclooctaphan-8-one]
18 | 1 to 10 | CNc1cc2nc3c(cnn13)C(=O)NCCCc1cc(O)cc(c1)N2 [Compound 38, (1^3E,1^4E)-3^5-hydroxy-1^7-(methylamino)-2,7-diaza-1(5,3)-pyrazolo[1,5-a]pyrimidina-3(1,3)-benzenacyclooctaphan-8-one]
19 | 0.1 to 1 | CNc1cc2nc3c(cnn13)C(=O)NCCOc1cc(F)ccc1N2 [Compound 34, (1^3E,1^4E)-3^4-fluoro-1^7-(methylamino)-4-oxa-2,7-diaza-1(5,3)-pyrazolo[1,5-a]pyrimidina-3(1,2)-benzenacyclooctaphan-8-one]
20 | 0.1 to 1 | CNc1cc2nc3c(cnn13)C(=O)NC(C)COc1cccc(c1)N2 (centres unmarked) [Compound 25, (1^3E,1^4E)-6-methyl-1^7-(methylamino)-4-oxa-2,7-diaza-1(5,3)-pyrazolo[1,5-a]pyrimidina-3(1,3)-benzenacyclooctaphan-8-one]
21 | 0.1 to 1 | CNc1cc2nc3c(cnn13)C(=O)NCCOc1cc(cc(F)c1F)N2 [Compound 28, (1^3E,1^4E)-3^4,3^5-difluoro-1^7-(methylamino)-4-oxa-2,7-diaza-1(5,3)-pyrazolo[1,5-a]pyrimidina-3(1,3)-benzenacyclooctaphan-8-one]
22 | ≤ 0.5 | [2H]C([2H])([2H])Nc1cc2nc3c(cnn13)C(=O)NCCOc1cccc(c1)N2 [Compound 14, (1^3E,1^4E)-1^7-((methyl-d3)amino)-4-oxa-2,7-diaza-1(5,3)-pyrazolo[1,5-a]pyrimidina-3(1,3)-benzenacyclooctaphan-8-one]
23 | 0.1 to 1 | CNc1cc2nc3c(cnn13)C(=O)NCCCc1cccc(c1)N2 [Compound 18, (1^3E,1^4E)-1^7-(methylamino)-2,7-diaza-1(5,3)-pyrazolo[1,5-a]pyrimidina-3(1,3)-benzenacyclooctaphan-8-one]
24 | 1 to 10 | CNc1cc2nc3c(cnn13)C(=O)NCCCc1cc(cc(OC)c1)N2 [Compound 40, (1^3E,1^4E)-3^5-methoxy-1^7-(methylamino)-2,7-diaza-1(5,3)-pyrazolo[1,5-a]pyrimidina-3(1,3)-benzenacyclooctaphan-8-one]
25 | ≤ 0.5 | CNc1cc2nc3c(cnn13)C(=O)NCCOc1cccc(n1)N2 [Compound 17, (1^3E,1^4E)-1^7-(methylamino)-4-oxa-2,7-diaza-1(5,3)-pyrazolo[1,5-a]pyrimidina-3(2,6)-pyridinacyclooctaphan-8-one]
26 | 0.1 to 1 | CNc1cc2nc3c(cnn13)C(=O)NC(C)COc1ccccc1N2 (centres unmarked) [Compound 36, (1^3E,1^4E)-6-methyl-1^7-(methylamino)-4-oxa-2,7-diaza-1(5,3)-pyrazolo[1,5-a]pyrimidina-3(1,2)-benzenacyclooctaphan-8-one]

— patent US11780842B2, “TYK2 pseudokinase ligands” (Ventyx Biosciences, Inc., priority 2019, dated 2023)
